# Source: US20150250714A1, “PHARMACEUTICAL COMPOSITIONS AND DELIVERY DEVICES COMPRISING STINGING CELLS OR CAPSULES” (NANOCYTE (ISRAEL) LTD., priority 2010, published 2015)
# Read-outs that look alike come from different tables or passages of the source.
# Key:
# [1] = topical 400 mg
# Method: Cnidocysts were isolated from the filament acontia of Aiptasia diaphana based on their high density and high stability in salts as described previously (1, 2) (FIGS. 1A-C). Briefly, filaments were incubated in 1M sodium citrate, followed by two centrifugations in 70% percoll gradients. The isolated cnidocysts were washed with decreasing concentrations of NaCl (1M to 0.2M) and freeze-dried. The purified cnidocysts were kept dry until use, or formulated in an anhydrous gel consisting of 2% hydroxyl propyl cellulose in absolute ethanol.
# The study included 3 dosing sessions as detailed in Table 3 below.
# [2] = oral; cited from earlier work
Structure (SMILES),"Cumulative Value (CV) % of atropine concentrations, Topical ([1]; Time 0.17) [%]","Cumulative Value (CV) % of atropine concentrations, Topical ([1]; Time 0.25) [%]","Cumulative Value (CV) % of atropine concentrations, Topical ([1]; Time 0.5) [%]","Cumulative Value (CV) % of atropine concentrations, Topical ([1]; Time 0.75) [%]","Cumulative Value (CV) % of atropine concentrations, Topical ([1]; Time 1) [%]","Cumulative Value (CV) % of atropine concentrations, Topical ([1]; Time 2) [%]","Cumulative Value (CV) % of atropine concentrations, Topical ([1]; Time 4) [%]","Cumulative Value (CV) % of atropine concentrations, Topical ([1]; Time 12) [%]","Cumulative Value (CV) % of atropine concentrations, Topical ([1]; Time 24) [%]",fraction absorbed when taken orally [2] [%]
"CN1[C@@H]2CC[C@H]1C[C@@H](OC(=O)C(CO)c1ccccc1)C2 (mixture of isomers) [atropine, Atropine]",43.6,76.9,42.5,148.9,103.7,98.9,113.2,96.4,144.3,–
NCCCC(O)(P(=O)(O)O)P(=O)(O)O [sodium alendronate],–,–,–,–,–,–,–,–,–,0.64
